Assay results from patent publication US9180136B2, “Identification and treatment of cancer subsets” (The Translational Genomics Research Institute, priority 2010, dated 2015).
Counter-ions that a name gives are not always drawn.

Legend:
[1] = test system: transformed normal human embryonic kidney cell line (HEK-293); test: CellTiter-Glo luminescent cell viability after IP6 treatment; type: cell-based; settings: HEK-293, 0.31-5 mM IP6, 72 hours, FIG. 18
Protocol: (§1) The human head and neck squamous cell carcinoma lines evaluated were: SCC-4, SCC-9 and SCC-15. The colorectal cancer cell line HT-29 and the kidney embryonic line HEK293, purchased from the American Type Culture Collection (ATCC, Manassas, Va.), were used for comparison. Squamous cell lines were maintained in Dulbecco's Modified Eagle Medium: Nutrient Mixture F12 (DMEM/F12), with 10% Fetal bovine serum (FBS), 2 mM GlutaMAX, 25 mM Hepes buffer, 100 U/ml penicillin and 100 μg/ml streptomycin. HEK293 and HT-29 were cultured in DMEM and RPMI-1640 medium respectively, with the supplements mentioned above. All media and cell culture supplements were purchased from Invitrogen Corporation (Carlsbad, Calif.). Sub-confluent, rapidly growing cells were plated at a density of 600 cells/20 μL/well in a clear bottom 384-well plate with opaque walls, suitable for luminescent measurements. The next day, IP6 (Inositol hexakisphosphate, phytic acid, dipotassium salt, Sigma-Aldrich, St Louis, Mo.) solutions in culture medium, corresponding to the following concentrations: 0.3125, 0.625, 1.25, 2.5 and 5 mM, were prepared, and were stored at 4° C. for 4-6 h. […] The plate was incubated at room temperature for 10 minutes, and the luminescence was read on a Perkin Elmer Victor^3 microplate reader. Data from each set of four replicates was averaged and the standard deviation was calculated. […]

[2] = test system: colorectal adenocarcinoma (HT-29); test: as above; type: cell-based; settings: HT-29, 0.31-5 mM IP6, 72 hours, FIG. 18
Protocol: as §1

SCC-4 = test: as above; type: cell-based, human; settings: SCC-4, 0.31-5 mM IP6, 72 hours, FIG. 18
Protocol: (§2) The human head and neck squamous cell carcinoma lines evaluated were: SCC-4, SCC-9 and SCC-15. The colorectal cancer cell line HT-29 and the kidney embryonic line HEK293, purchased from the American Type Culture Collection (ATCC, Manassas, Va.), were used for comparison. Squamous cell lines were maintained in Dulbecco's Modified Eagle Medium: Nutrient Mixture F12 (DMEM/F12), with 10% Fetal bovine serum (FBS), 2 mM GlutaMAX, 25 mM Hepes buffer, 100 U/ml penicillin and 100 μg/ml streptomycin. HEK293 and HT-29 were cultured in DMEM and RPMI-1640 medium respectively, with the supplements mentioned above. All media and cell culture supplements were purchased from Invitrogen Corporation (Carlsbad, Calif.). Sub-confluent, rapidly growing cells were plated at a density of 600 cells/20 μL/well in a clear bottom 384-well plate with opaque walls, suitable for luminescent measurements. The next day, IP6 (Inositol hexakisphosphate, phytic acid, dipotassium salt, Sigma-Aldrich, St Louis, Mo.) solutions in culture medium, corresponding to the following concentrations: 0.3125, 0.625, 1.25, 2.5 and 5 mM, were prepared, and were stored at 4° C. for 4-6 h. Shortly before treatment, IP6 solutions were centrifuged to remove any precipitates that IP6 forms with calcium chloride. Four wells were treated for each condition. […] (San Luis Obispo, Calif.), following the manufacturer's instruction. Briefly, the assay buffer and substrate were equilibrated at room temperature, and mixed thoroughly. Without removing medium from wells, the assay reagent was added into each well (1:1, volume:volume of medium per well) and the content was mixed for 2 minutes on an orbital shaker to induce cell lysis. The plate was incubated at room temperature for 10 minutes, and the luminescence was read on a Perkin Elmer Victor^3 microplate reader. Data from each set of four replicates was averaged and the standard deviation was calculated. […]

SCC-9 = test: as above; type: cell-based, human; settings: SCC-9, 0.31-5 mM IP6, 72 hours, FIG. 18
Protocol: as §2

SCC-15 = test: as above; type: cell-based, human; settings: SCC-15, 0.31-5 mM IP6, 72 hours, FIG. 18
Protocol: as §2

[3] = test system: normal human keratinocytes; test: TUNEL apoptosis staining of normal human keratinocytes at different confluence treated with IP6; type: cell-based; settings: for apoptosis (TUNEL staining): 2 mM IP6 for 24 hours
Protocol: FIG. 12 depicts the effect of IP6 treatment on confluent normal human keratinocytes. […] The DNA blue fluorescence was produced by DAPI probe. Apoptotic nuclei red fluorescence was produced through TUNEL assay; FIG. 13 depicts the effect of IP6 treatment on 70% confluent keratinocytes. […] The DNA blue fluorescence was produced by DAPI probe. […] Normal human keratinocytes were harvested at various stages of confluency. Cell cultures were assessed by morphological evaluation of the cell and segregated into distinct culture confluence intervals at or near the plateau phase of growth, generally: lower confluence (L), 70-80%; medium confluence (M), 80-90%, and higher confluence (H), >95%. INPP5A mRNA expression at selected culture confluence levels was evaluated by qPCR.

SCC-4 cells = test: TUNEL apoptosis staining of SCC-4 cells treated with IP6; type: cell-based, human; settings: SCC-4 cells treated with IP6 vs untreated, FIG. 8
Description: FIG. 8 depicts increased apoptosis in a squamous cell carcinoma cell line treated with IP6 (right panel B) relative to the same line without treatment (left panel A), and the DNA blue fluorescence was produced by DAPI probe. Apoptotic nuclei red fluorescence was produced through TUNEL assay; IP6 is an inositol metabolite that is dependant upon INPP5A activity for its synthesis (See FIG. 7). Addition of exogenous IP6 inhibits the cell proliferation brought about by INPP5A loss and drives cells towards a differentiated phenotype. […] Increased TUNEL staining (red) is seen in the IP6 treated cells.

O=P(O)(O)O[C@H]1[C@H](OP(=O)(O)O)[C@@H](OP(=O)(O)O)[C@H](OP(=O)(O)O)[C@@H](OP(=O)(O)O)[C@H]1OP(=O)(O)O [IP6, Inositol hexakisphosphate, phytic acid, dipotassium salt]
proportion of cells present after treatment relative to untreated cells [1]: dose-dependent reduction in number
proportion of cells present after treatment relative to untreated cells [2]: dose-dependent reduction in number
proportion of cells present after treatment relative to untreated cells (SCC-4): dose-dependent reduction in number, which is much greater for the SCC cells
proportion of cells present after treatment relative to untreated cells (SCC-9): dose-dependent reduction in number, which is much greater for the SCC cells
proportion of cells present after treatment relative to untreated cells (SCC-15): dose-dependent reduction in number, which is much greater for the SCC cells
apoptosis (TUNEL staining) ([3]; 70% confluent keratinocytes, FIG. 13): Greater apoptosis relative to background
apoptosis (TUNEL staining) ([3]; 100% confluent keratinocytes, FIG. 12): reduced apoptosis
selectivity for cells with reduced INPP5A expression ([3]; normal human keratinocytes at various stages of confluency): selective for cells with reduced INPP5A expression
cell death by apoptosis (TUNEL staining) (SCC-4 cells): significant cell death by apoptosis
